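96-well plates; 48 h exposure; 5 concentrations. Endpoints by linear interpolation between flanking doses. Not reached: highest tested concentration assigned. Abbreviation: GI50, concentration required for 50% inhibition of growth.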 The source made the active and inactive calls. Cut-off read from the data, not from the text of the source: active = GI50 up to about 1.1 µM and inactive = higher.
Legend:
Assay in all cases: NCI-60 cell line screen, 48 h
HCC 2998 = system: HCC 2998
HL-60 = system: HL-60
K562 = system: K562
KM-20L2 = system: KM-20L2
Malme-3M = system: Malme-3M
NCI-H226 = system: NCI-H226
NCI-H460 = system: NCI-H460
OVCAR-8 = system: OVCAR-8
SK-MEL-28 = system: SK-MEL-28
SK-MEL-2 = system: SK-MEL-2
SK-MEL-5 = system: SK-MEL-5
SNB-19 = system: SNB-19
SW-620 = system: SW-620
TK-10 = system: TK-10
UACC-62 = system: UACC-62
HCT-116 = system: HCT-116
SR = system: SR

Measured: GI50

O=C(Cn1ccnc1[N+](=O)[O-])c1ccccc1
inactive: HCC 2998 > 100 µM | HL-60 > 100 µM | K562 > 100 µM | KM-20L2 > 100 µM | Malme-3M > 100 µM | NCI-H226 > 100 µM | NCI-H460 > 100 µM | OVCAR-8 > 100 µM | SK-MEL-28 > 100 µM | SK-MEL-2 > 100 µM | SK-MEL-5 > 100 µM | SNB-19 > 100 µM | SW-620 > 100 µM | TK-10 > 100 µM | UACC-62 > 100 µM

Cc1ccc(C)c(NC(=O)CCc2n[nH]c(=S)o2)c1
inactive: HCC 2998 > 100 µM | HCT-116 > 100 µM | HL-60 > 100 µM | K562 > 100 µM | KM-20L2 > 100 µM | Malme-3M > 100 µM | NCI-H226 > 100 µM | NCI-H460 > 100 µM | OVCAR-8 > 100 µM | SK-MEL-28 > 100 µM | SK-MEL-5 > 100 µM | SNB-19 > 100 µM | SR > 100 µM | SW-620 > 100 µM | TK-10 > 100 µM | UACC-62 > 100 µM

COc1ccc2[nH]c3c4c(cc(-c5ccccc5)c3c2c1)C(=O)N(c1ccccc1)C4=O
inactive: HCC 2998 > 100 µM | HCT-116 29.2 µM | HL-60 38.5 µM | K562 22.1 µM | KM-20L2 > 100 µM | Malme-3M 20.4 µM | NCI-H226 25.1 µM | NCI-H460 9.73 µM | OVCAR-8 6.05 µM | SK-MEL-28 37.9 µM | SK-MEL-2 21.3 µM | SK-MEL-5 12.3 µM | SNB-19 23.6 µM | SR 1.77 µM | SW-620 11.4 µM | TK-10 64.9 µM | UACC-62 21.7 µM

COc1cc2c(c(OC)c1)C(=O)C(=O)C(CC1(C)OCCCO1)=C2
inactive: HCC 2998 16.4 µM | HCT-116 4.38 µM | HL-60 1.85 µM | K562 2.29 µM | KM-20L2 17.9 µM | Malme-3M 8.2 µM | NCI-H226 6.17 µM | NCI-H460 13.3 µM | OVCAR-8 11.5 µM | SK-MEL-28 15.2 µM | SK-MEL-2 16 µM | SK-MEL-5 6.05 µM | SNB-19 22.2 µM | SR 3.3 µM | SW-620 1.79 µM | TK-10 6.14 µM | UACC-62 7.91 µM

COC(=O)c1c2cccccc-2c(Cc2c3cccccc-3c(C(=O)OC)c2O)c1O
inactive: HCC 2998 > 100 µM | HCT-116 > 100 µM | HL-60 > 100 µM | K562 > 100 µM | KM-20L2 > 100 µM | Malme-3M > 100 µM | NCI-H226 > 100 µM | NCI-H460 > 100 µM | OVCAR-8 > 100 µM | SK-MEL-28 > 100 µM | SK-MEL-2 > 100 µM | SK-MEL-5 > 100 µM | SNB-19 > 100 µM | SR > 100 µM | SW-620 > 100 µM | TK-10 > 100 µM | UACC-62 > 100 µM

CC(=O)N1CC(=O)NC1=S
inactive: HCT-116 > 100 µM | HL-60 > 100 µM | K562 > 100 µM | KM-20L2 > 100 µM | Malme-3M > 100 µM | NCI-H226 > 100 µM | OVCAR-8 > 100 µM | SK-MEL-28 > 100 µM | SK-MEL-2 > 100 µM | SK-MEL-5 > 100 µM | SNB-19 > 100 µM | SR > 100 µM | SW-620 > 100 µM | TK-10 > 100 µM | UACC-62 > 100 µM

Nc1nc(Cl)cc(NCCCCCNc2cc(Cl)nc(N)n2)n1
inactive: HCC 2998 > 100 µM | HCT-116 30.3 µM | HL-60 27.3 µM | K562 34.6 µM | KM-20L2 > 100 µM | NCI-H226 41.4 µM | NCI-H460 > 100 µM | OVCAR-8 71.8 µM | SK-MEL-28 75 µM | SK-MEL-2 > 100 µM | SK-MEL-5 23.5 µM | SNB-19 > 100 µM | SR 38.7 µM | SW-620 > 100 µM | TK-10 > 100 µM | UACC-62 24 µM

CCOc1cc2c(cc1OC)c[n+](C)c1c3cc(OC)c(OC)cc3ccc21
inactive: HCC 2998 > 100 µM | HCT-116 49.1 µM | HL-60 17.2 µM | K562 > 34.3 µM | KM-20L2 > 100 µM | Malme-3M > 77.6 µM | NCI-H226 > 57.1 µM | NCI-H460 > 73.6 µM | OVCAR-8 > 60.3 µM | SK-MEL-28 > 64.1 µM | SK-MEL-2 33.3 µM | SK-MEL-5 > 50.4 µM | SNB-19 > 52.5 µM | SR 46.6 µM | SW-620 46.5 µM | TK-10 59.4 µM | UACC-62 > 91 µM

Source: ChEMBL document CHEMBL1201862, “PubChem BioAssay data set” (2004)
